{"source": "patent US12338220B2", "about": "“Antiviral pyrazolopiridinone compounds” (Novartis AG, priority 2019, dated 2025)", "key": {"[1]": {"target": "CMV-polymerase (Human cytomegalovirus (strain AD169) (HHV-5) (Human herpesvirus 5), UniProt P08546)", "assay": "biochemical"}, "[2]": {"test_system": "CMV", "assay": "microbe, parasite or virus in culture", "assay_type": "cell-based", "conditions": "Human betaherpesvirus 5, 72 h, read-out: CMV-Luc Cellular EC50, NN-NHDF cells, MOI 1, 72 hrs"}, "[3]": {"conditions": "read-out: CMV-polymerase Biochemical IC50"}, "[4]": {"conditions": "CMV-polymerase Biochemical IC50"}}, "note": "Structures can show the parent of a compound that is named as a salt. Where two headings read alike, the source gives them in different places."}
{"compound": "COC(=O)NCC(C)(C)S(=O)(=O)C1(CN2CCc3c(C(=O)NCc4ccc(C#N)cc4)nn(C)c3C2=O)CC1", "note": "[Example 73, Methyl (2-((1-((3-((4-cyanobenzyl)carbamoyl)-1-methyl-7-oxo-1,4,5,7-tetrahydro-6H-pyrazolo[3,4-c]pyridin-6-yl)methyl)cyclopropyl)sulfonyl)-2-methylpropyl)carbamate]", "values": [{"measurement": "IC50", "setting": "[1]; [3]", "value": 2, "unit": "nM"}, {"measurement": "EC50", "setting": "[2]", "value": 53, "unit": "nM"}]}
{"compound": "Cn1nc(C(=O)NCc2ccc(C#N)cc2)c2c1C(=O)N(CC1(S(=O)(=O)C(C)(C)COC(F)(F)CO)CC1)CC2", "note": "[Example 84, N-(4-cyanobenzyl)-6-((1-((1-(1,1-difluoro-2-hydroxyethoxy)-2-methylpropan-2-yl)sulfonyl)cyclopropyl)methyl)-1-methyl-7-oxo-4,5,6,7-tetrahydro-1H-pyrazolo[3,4-c]pyridine-3-carboxamide]", "values": [{"measurement": "IC50", "setting": "[1]; [4]", "value": 4, "unit": "nM"}, {"measurement": "EC50", "setting": "[2]", "value": 51, "unit": "nM"}]}
{"compound": "Cn1nc(C(=O)NCc2ccc(C#N)cc2)c2c1C(=O)N(CC1(S(=O)(=O)C(C)(C)COCC(C)(C)O)CC1)CC2", "note": "[Example 86, N-(4-Cyanobenzyl)-6-((1-((1-(2-hydroxy-2-methylpropoxy)-2-methylpropan-2-yl)sulfonyl)cyclopropyl)methyl)-1-methyl-7-oxo-4,5,6,7-tetrahydro-1H-pyrazolo[3,4-c]pyridine-3-carboxamide]", "values": [{"measurement": "IC50", "setting": "[1]; [4]", "value": 18, "unit": "nM"}, {"measurement": "EC50", "setting": "[2]", "value": 145, "unit": "nM"}]}
{"compound": "CN(C)CCOCC(C)(C)S(=O)(=O)C1(CN2CCc3c(C(=O)NCc4ccc(C#N)cc4)nn(C)c3C2=O)CC1", "note": "[Example 104, N-(4-Cyanobenzyl)-6-((1-((1-(2-(dimethylamino)ethoxy)-2-methylpropan-2-yl)sulfonyl)cyclopropyl)methyl)-1-methyl-7-oxo-4,5,6,7-tetrahydro-1H-pyrazolo[3,4-c]pyridine-3-carboxamide]", "values": [{"measurement": "IC50", "setting": "[1]; [3]", "value": 3, "unit": "nM"}, {"measurement": "EC50", "setting": "[2]", "value": 21, "unit": "nM"}]}
{"compound": "CC1(C)COCCOCCn2nc(C(=O)NCc3ccc(Cl)cc3)c3c2C(=O)N(CC3)CC2(CC2)S1(=O)=O", "note": "[Example 240, Ethylene glycol macrocycle N-(4-chlorobenzyl)carboxamide]", "values": [{"measurement": "IC50", "setting": "[1]; [4]", "value": 1, "unit": "nM"}, {"measurement": "EC50", "setting": "[2]", "value": 43, "unit": "nM"}]}
{"compound": "Cn1nc(C(=O)NCc2ccc(C#N)cc2)c2c1C(=O)N(CC1(S(=O)(=O)C(C)(C)COC3CNC3)CC1)CC2", "note": "[Example 102, 6-((1-((1-(Azetidin-3-yloxy)-2-methylpropan-2-yl)sulfonyl)cyclopropyl)methyl)-N-(4-cyanobenzyl)-1-methyl-7-oxo-4,5,6,7-tetrahydro-1H-pyrazolo[3,4-c]pyridine-3-carboxamide]", "values": [{"measurement": "IC50", "setting": "[1]; [4]", "value": 5, "unit": "nM"}, {"measurement": "EC50", "setting": "[2]", "value": 26, "unit": "nM"}]}
{"compound": "Cn1nc(C(=O)NCc2ccc(C#N)cc2)c2c1C(=O)N(CC1(S(=O)(=O)[C@H]3C[C@@H](O)C3)CC1)CC2", "note": "[Example 119, N-(4-Cyanobenzyl)-6-((1-(((1s,3s)-3-hydroxycyclobutyl)sulfonyl)cyclopropyl)methyl)-1-methyl-7-oxo-4,5,6,7-tetrahydro-1H-pyrazolo[3,4-c]pyridine-3-carboxamide]", "values": [{"measurement": "IC50", "setting": "[1]; [4]", "value": 4, "unit": "nM"}, {"measurement": "EC50", "setting": "[2]", "value": 156, "unit": "nM"}]}
{"compound": "CN1CCN(S(=O)(=O)C2(CN3CCc4c(C(=O)NCc5ccc(C#N)cc5)nn(C)c4C3=O)CC2)CC1", "note": "[Example 136, N-(4-Cyanobenzyl)-1-methyl-6-((1-((4-methylpiperazin-1-yl)sulfonyl)cyclopropyl)methyl)-7-oxo-4,5,6,7-tetrahydro-1H-pyrazolo[3,4-c]pyridine-3-carboxamide]", "values": [{"measurement": "IC50", "setting": "[1]; [3]", "value": 18, "unit": "nM"}, {"measurement": "EC50", "setting": "[2]", "value": 199, "unit": "nM"}]}
{"compound": "Cn1nc(C(=O)NCc2ccc(C#N)cc2)c2c1C(=O)N(CC1(S(=O)(=O)C3(COCCN)CC3)CC1)CC2", "note": "[Example 96, 6-((1-((1-((2-aminoethoxy)methyl)cyclopropyl)sulfonyl)cyclopropyl)methyl)-N-(4-cyanobenzyl)-1-methyl-7-oxo-4,5,6,7-tetrahydro-1H-pyrazolo[3,4-c]pyridine-3-carboxamide]", "values": [{"measurement": "IC50", "setting": "[1]; [3]", "value": 1, "unit": "nM"}, {"measurement": "EC50", "setting": "[2]", "value": 26, "unit": "nM"}]}
{"compound": "CC(C)(CO)S(=O)(=O)C1(CN2CCc3c(C(=O)NCc4ccc(C#N)cc4)nn(CCO)c3C2=O)CC1", "note": "[Example 220, N-(4-Cyanobenzyl)-6-((1-((1-hydroxy-2-methylpropan-2-yl)sulfonyl)cyclopropyl)methyl)-1-(2-hydroxyethyl)-7-oxo-4,5,6,7-tetrahydro-1H-pyrazolo[3,4-c]pyridine-3-carboxamide]", "values": [{"measurement": "IC50", "setting": "[1]; [3]", "value": 1, "unit": "nM"}, {"measurement": "EC50", "setting": "[2]", "value": 49, "unit": "nM"}]}
{"compound": "Cn1nc(C(=O)NCc2ccc(C#N)cc2)c2c1C(=O)N(CC1(S(=O)(=O)C(C)(C)COCC(C)(C)N)CC1)CC2", "note": "[Example 103, 6-((1-((1-(2-Amino-2-methylpropoxy)-2-methylpropan-2-yl)sulfonyl)cyclopropyl)methyl)-N-(4-cyanobenzyl)-1-methyl-7-oxo-4,5,6,7-tetrahydro-1H-pyrazolo[3,4-c]pyridine-3-carboxamide]", "values": [{"measurement": "IC50", "setting": "[1]; [4]", "value": 9, "unit": "nM"}, {"measurement": "EC50", "setting": "[2]", "value": 41, "unit": "nM"}]}
{"compound": "CNC(=O)C(C)(C)S(=O)(=O)C1(CN2CCc3c(C(=O)NCc4ccc(Cl)cc4)nn(C)c3C2=O)CC1", "note": "[Example 110, N-(4-Chlorobenzyl)-1-methyl-6-((1-((2-methyl-1-(methylamino)-1-oxopropan-2-yl)sulfonyl)cyclopropyl)methyl)-7-oxo-4,5,6,7-tetrahydro-1H-pyrazolo[3,4-c]pyridine-3-carboxamide]", "values": [{"measurement": "IC50", "setting": "[1]; [4]", "value": 5, "unit": "nM"}, {"measurement": "EC50", "setting": "[2]", "value": 218, "unit": "nM"}]}
{"compound": "Cn1nc(C(=O)NCc2ccc(Cl)cc2)c2c1C(=O)N(CC1(S(=O)(=O)C(C)(C)[C@H](N)CO)CC1)CC2", "note": "[Example 214, (R)-6-((1-((3-Amino-4-hydroxy-2-methylbutan-2-yl)sulfonyl)cyclopropyl)methyl)-N-(4-chlorobenzyl)-1-methyl-7-oxo-4,5,6,7-tetrahydro-1H-pyrazolo[3,4-c]pyridine-3-carboxamide hydrochloride]", "values": [{"measurement": "IC50", "setting": "[1]; [3]", "value": 3, "unit": "nM"}, {"measurement": "EC50", "setting": "[2]", "value": 42, "unit": "nM"}]}
{"compound": "CC1(C)COCCOCCn2nc(C(=O)NCc3ccc(C#N)cc3)c3c2C(=O)N(CC3)CC2(CC2)S1(=O)=O", "note": "[Example 239, Ethylene glycol macrocycle N-(4-cyanobenzyl)carboxamide]", "values": [{"measurement": "IC50", "setting": "[1]; [4]", "value": 1, "unit": "nM"}, {"measurement": "EC50", "setting": "[2]", "value": 23, "unit": "nM"}]}
{"compound": "CC1(S(=O)(=O)C2(CN3CCc4c(C(=O)NCc5ccc(Cl)cc5)nn(CCOCCO)c4C3=O)CC2)CC1", "note": "[Example 222, N-(4-Chlorobenzyl)-1-(2-(2-hydroxyethoxy)ethyl)-6-((1-((1-methylcyclopropyl)sulfonyl)cyclopropyl)methyl)-7-oxo-4,5,6,7-tetrahydro-1H-pyrazolo[3,4-c]pyridine-3-carboxamide]", "values": [{"measurement": "IC50", "setting": "[1]; [4]", "value": 3, "unit": "nM"}, {"measurement": "EC50", "setting": "[2]", "value": 33, "unit": "nM"}]}
{"compound": "O=C(NCc1ccc(Cl)cc1)c1n[nH]c2c1CCN(CC1(S(=O)(=O)C3CC3)CC1)C2=O", "note": "[Example 44, N-(4-Chlorobenzyl)-6-((1-(cyclopropylsulfonyl)cyclopropyl)methyl)-7-oxo-4,5,6,7-tetrahydro-1H-pyrazolo[3,4-c]pyridine-3-carboxamide]", "values": [{"measurement": "IC50", "setting": "[1]; [4]", "value": 4, "unit": "nM"}, {"measurement": "EC50", "setting": "[2]", "value": 76, "unit": "nM"}]}
{"compound": "N#Cc1ccc(CNC(=O)c2nn(CCCO)c3c2CCN(CC2(S(=O)(=O)C4CC4)CC2)C3=O)cc1", "note": "[Example 236, N-(4-Cyanobenzyl)-6-((1-(cyclopropylsulfonyl)cyclopropyl)methyl)-1-(3-hydroxypropyl)-7-oxo-4,5,6,7-tetrahydro-1H-pyrazolo[3,4-c]pyridine-3-carboxamide]", "values": [{"measurement": "IC50", "setting": "[1]; [3]", "value": 4, "unit": "nM"}, {"measurement": "EC50", "setting": "[2]", "value": 77, "unit": "nM"}]}
{"compound": "CC(C)(CO)S(=O)(=O)C1(CN2CCc3c(C(=O)NCc4ccc(C#N)cc4)n[nH]c3C2=O)CC1", "note": "[Example 49, N-(4-Cyanobenzyl)-6-((1-((1-hydroxy-2-methylpropan-2-yl)sulfonyl)cyclopropyl)methyl)-7-oxo-4,5,6,7-tetrahydro-1H-pyrazolo[3,4-c]pyridine-3-carboxamide]", "values": [{"measurement": "IC50", "setting": "[1]; [4]", "value": 4, "unit": "nM"}, {"measurement": "EC50", "setting": "[2]", "value": 58, "unit": "nM"}]}
{"compound": "CNCCOCC(C)(C)S(=O)(=O)C1(CN2CCc3c(C(=O)NCc4ccc(C#N)cc4)nn(C)c3C2=O)CC1", "note": "[Example 101, N-(4-Cyanobenzyl)-1-methyl-6-((1-((2-methyl-1-(2-(methylamino)ethoxy)propan-2-yl)sulfonyl)cyclopropyl)methyl)-7-oxo-4,5,6,7-tetrahydro-1H-pyrazolo[3,4-c]pyridine-3-carboxamide]", "values": [{"measurement": "IC50", "setting": "[1]; [4]", "value": 1, "unit": "nM"}, {"measurement": "EC50", "setting": "[2]", "value": 9, "unit": "nM"}]}
{"compound": "Cn1nc(C(=O)NCc2ccc(Cl)cc2)c2c1C(=O)N(CC1(S(=O)(=O)C(C)(C)CO)CC1)CC2", "note": "[Example 50, N-(4-Chlorobenzyl)-6-((1-((1-hydroxy-2-methylpropan-2-yl)sulfonyl)cyclopropyl)methyl)-1-methyl-7-oxo-4,5,6,7-tetrahydro-1H-pyrazolo[3,4-c]pyridine-3-carboxamide]", "values": [{"measurement": "IC50", "setting": "[1]; [4]", "value": 1, "unit": "nM"}, {"measurement": "EC50", "setting": "[2]", "value": 20, "unit": "nM"}]}
{"compound": "Cn1nc(C(=O)NCc2ccc(Cl)cc2)c2c1C(=O)N(CC1(S(=O)(=O)N3CC(O)C3)CC1)CC2", "note": "[Example 150, N-(4-Chlorobenzyl)-6-((1-((3-hydroxyazetidin-1-yl)sulfonyl)cyclopropyl)methyl)-1-methyl-7-oxo-4,5,6,7-tetrahydro-1H-pyrazolo[3,4-c]pyridine-3-carboxamide]", "values": [{"measurement": "IC50", "setting": "[1]; [3]", "value": 6, "unit": "nM"}, {"measurement": "EC50", "setting": "[2]", "value": 67, "unit": "nM"}]}
{"compound": "Cn1nc(C(=O)NCc2ccc(C#N)cc2)c2c1C(=O)N(CC1(S(=O)(=O)C(C)(C)[C@@H](O)CO)CC1)CC2", "note": "[Example 192, (S)-N-(4-Cyanobenzyl)-6-((1-((3,4-dihydroxy-2-methylbutan-2-yl)sulfonyl)cyclopropyl)methyl)-1-methyl-7-oxo-4,5,6,7-tetrahydro-1H-pyrazolo[3,4-c]pyridine-3-carboxamide]", "values": [{"measurement": "IC50", "setting": "[1]; [3]", "value": 1, "unit": "nM"}, {"measurement": "EC50", "setting": "[2]", "value": 35, "unit": "nM"}]}
{"compound": "Cn1nc(C(=O)NCc2ccc(C#N)cc2)c2c1C(=O)N(CC1(S(=O)(=O)Nc3ccccn3)CC1)CC2", "note": "[Example 155, N-(4-cyanobenzyl)-1-methyl-7-oxo-6-((1-(N-(pyridin-2-yl)sulfamoyl)cyclopropyl)methyl)-4,5,6,7-tetrahydro-1H-pyrazolo[3,4-c]pyridine-3-carboxamide]", "values": [{"measurement": "IC50", "setting": "[1]; [4]", "value": 2, "unit": "nM"}, {"measurement": "EC50", "setting": "[2]", "value": 57, "unit": "nM"}]}
{"compound": "Cn1nc(C(=O)NCc2ccc(C#N)cc2)c2c1C(=O)N(CC1(S(=O)(=O)C(C)(C)[C@H](N)CO)CC1)CC2", "note": "[Example 213, (R)-6-((1-((3-Amino-4-hydroxy-2-methylbutan-2-yl)sulfonyl)cyclopropyl)methyl)-N-(4-cyanobenzyl)-1-methyl-7-oxo-4,5,6,7-tetrahydro-1H-pyrazolo[3,4-c]pyridine-3-carboxamide]", "values": [{"measurement": "IC50", "setting": "[1]; [4]", "value": 2, "unit": "nM"}, {"measurement": "EC50", "setting": "[2]", "value": 81, "unit": "nM"}]}
